Source: patent US12275729B2 (Merck Sharp & Dohme LLC, priority 2017, dated 2025)

Target: IDO1 (Homo sapiens, UniProt P14902)
Assay: IDO1 Cellular Assay in HeLa Cells Stimulated with IFNγ
Type: cell-based
Details: about 48 hours, read-out: Hela IC50

Sequence of IDO1 (P14902 whole entry): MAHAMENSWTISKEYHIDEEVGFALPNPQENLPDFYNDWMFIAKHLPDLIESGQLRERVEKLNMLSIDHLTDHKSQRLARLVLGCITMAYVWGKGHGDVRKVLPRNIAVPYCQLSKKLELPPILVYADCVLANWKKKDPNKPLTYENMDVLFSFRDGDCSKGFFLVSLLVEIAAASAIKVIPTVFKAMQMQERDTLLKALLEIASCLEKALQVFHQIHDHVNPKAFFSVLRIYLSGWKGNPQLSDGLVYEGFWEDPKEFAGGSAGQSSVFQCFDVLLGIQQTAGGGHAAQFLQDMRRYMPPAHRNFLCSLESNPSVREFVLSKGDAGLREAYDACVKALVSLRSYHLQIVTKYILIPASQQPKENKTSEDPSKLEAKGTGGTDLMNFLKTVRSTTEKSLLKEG

IC50 [nM]	SMILES
136	Cn1ccc(C(=O)NCc2ccc3c(c2)CCCN3C(=O)c2cccc(Cl)c2)n1 [Example 25, N-{[1-(3-chlorobenzene-1-carbonyl)-1,2,3,4-tetrahydroquinolin-6-yl]methyl}-1-methyl-1H-pyrazole-3-carboxamide]
21.8	CC(C(=O)Nc1ccc(F)cc1)c1ccc2c(n1)CCCN2C(=O)[C@@H]1CCCO1 (single isomer, unassigned) [Example 163]
77.6	CCc1nc(C(=O)NCc2ccc3c(c2)CCCN3C(=O)c2cccc(Cl)c2)co1 [Example 23, N-{[1-(3-chlorobenzene-1-carbonyl)-1,2,3,4-tetrahydroquinolin-6-yl]methyl}-2-ethyl-1,3-oxazole-4-carboxamide]
1.91	Cc1ccnc(C(=O)N2CCCc3nc(C4(C(=O)Nc5ccc(F)cc5)COC4)ccc32)n1 [Example 400, N-(4-fluorophenyl)-3-(5-(4-methylpyrimidine-2-carbonyl)-5,6,7,8-tetrahydro-1,5-naphthyridin-2-yl)oxetane-3-carboxamide]
7.5	O=C(NC1(c2ccc3c(n2)CCCN3C(=O)C2CCCCO2)CC1)c1ccc(F)cc1 (stereo not shown) [Example 177, 4-fluoro-N-{1-[5-(oxane-2-carbonyl)-5,6,7,8-tetrahydro-1,5-naphthyridin-2-yl]cyclopropyl}benzamide]
9.4	CC(C)C(=O)N1CCCc2cc([C@H](C)C(=O)Nc3ccc(F)cc3)ccc21 [Example 83, (2S)-N-(4-fluorophenyl)-2-[1-(2-methylpropanoyl)-1,2,3,4-tetrahydroquinolin-6-yl]propanamide]
2.2	O=C(OC1CC1)N1CCc2nc(C3(C(=O)Nc4ccc(F)cc4)CCC3)ccc21 [Example 269, cyclopropyl 5-(1-((4-fluorophenyl)carbamoyl)cyclobutyl) 2,3-dihydro-1H-pyrrolo[3,2-b]pyridine-1-carboxylate]
18	C[C@H](C(=O)Nc1ccc(F)cn1)c1ccc2c(c1)CCCN2C(=O)c1cccc(Cl)c1 (single isomer, unassigned) [Example 54]
3.4	Cc1nc(C(=O)N2CCCc3cc(C(C)C(=O)Nc4ccc(F)cc4)ccc32)no1 (stereo not shown) [Example 47, N-(4-fluorophenyl)-2-[1-(5-methyl-1,2,4-oxadiazole-3-carbonyl)-1,2,3,4-tetrahydroquinolin-6-yl]propanamide]
61.8	CO[C@@H](C)C(=O)N1CCCc2cc([C@H](C)C(=O)Nc3ccc(F)cc3)ccc21 (single isomer, unassigned) [Example 75]
228	CC(NC(=O)c1ccc(F)cc1)c1ccc2c(n1)C(F)CCN2C(=O)C1CC1 (single isomer, unassigned) [Example 204, N-(1-(5-(cyclopropanecarbonyl)-8-fluoro-5,6,7,8-tetrahydro-1,5-naphthyridin-2-yl)ethyl)-4-fluorobenzamide]
9020	CC(=O)N1CC(C(=O)N2CCCc3cc([C@H](C)C(=O)Nc4ccc(F)cc4)ccc32)C1 [Example 69, (2S)-2-[1-(1-acetylazetidine-3-carbonyl)-1,2,3,4-tetrahydroquinolin-6-yl]-N-(4-fluorophenyl)propanamide]
3	Cc1cccc(C(=O)N2CCCc3nc(C(C)NC(=O)c4ccc(F)cc4)ccc32)n1 (stereo not shown) [Example 281, 2-(1-(4-fluorobenzamido)ethyl)-5-(6-methylpicolinoyl)-5,6,7,8-tetrahydro-1,5-naphthyridin-1-ium 2,2,2-trifluoroacetate]
11.5	CCn1ccc(C(=O)N2CCCc3nc(C(C)NC(=O)c4ccc(F)cc4)ccc32)n1 (stereo in doubt) [Example 143, N-{(1R)-1-[5-(1-ethyl-1H-pyrazole-3-carbonyl)-5,6,7,8-tetrahydro-1,5-naphthyridin-2-yl]ethyl}-4-fluorobenzamide]
42.2	CC(C)CC(=O)N1CCCc2cc([C@H](C)NC(=O)c3ccc(Cl)cc3)ccc21 (single isomer, unassigned) [Example 27]
4000	CC(C(=O)Nc1ccc(F)cc1)c1ccc2c(n1)CCCN2C(=O)c1cccc(S(C)(=O)=O)c1 (stereo not shown) [Example 285, N-(4-fluorophenyl)-2-(5-(3-(methylsulfonyl)benzoyl)-5,6,7,8-tetrahydro-1,5-naphthyridin-2-yl)propanamide]
74.6	C[C@@H](NC(=O)c1ccc(Cl)cc1)c1ccc2c(n1)OCCN2C(=O)c1cccc(Cl)c1 (single isomer, unassigned) [Example 255, 4-Chloro-N-(1-(1-(3-chlorobenzoyl)-2,3-dihydro-1H-pyrido[2,3-b][1,4]oxazin-6-yl)ethyl)benzamide]
17	CC(NC(=O)c1ccc(F)cc1)c1ccc2c(n1)CCCN2c1cc(C(F)(F)F)ncn1 (stereo not shown) [Example 235, 4-fluoro-N-(1-{5-[6-(trifluoromethyl)pyrimidin-4-yl]-5,6,7,8-tetrahydro-1,5-naphthyridin-2-yl}ethyl)benzamide]
5.6	CC(C(=O)Nc1ccc(F)cc1)c1ccc2c(n1)CCCN2C(=O)C1CCCCO1 (single isomer, unassigned) [Example 161, N-(4-fluorophenyl)-2-[5-(oxane-2-carbonyl)-5,6,7,8-tetrahydro-1,5-naphthyridin-2-yl]propanamide]
1.2	CC(NC(=O)c1ccc(F)cc1)c1ccc2c(n1)CCCN2C(=O)c1cccc(C(F)(F)F)c1 (stereo not shown) [Example 284, 2-(1-(4-fluorobenzamido)ethyl)-5-(3-(trifluoromethyl)benzoyl)-5,6,7,8-tetrahydro-1,5-naphthyridin-1-ium 2,2,2-trifluoroacetate]
10.9	O=C(Nc1ccc(F)cc1)C1(c2ccc3c(n2)CCN3c2ccccn2)CCC1 [Example 271, N-(4-fluorophenyl)-1-[1-(pyridin-2-yl)-2,3-dihydro-1H-pyrrolo[3,2-b]pyridin-5-yl]cyclobutane-1-carboxamide]
43.8	CC(C)[C@@H](O)C(=O)N1CCCc2cc([C@H](C)C(=O)Nc3ccc(F)cc3)ccc21 (single isomer, unassigned) [Example 72]
14.5	COc1ccnc(N2CCCc3nc(C4(NC(=O)c5ccc(F)cc5)CC4)ccc32)n1 [Example 298, 4-fluoro-N-(1-(5-(4-methoxypyrimidin-2-yl)-5,6,7,8-tetrahydro-1,5-naphthyridin-2-yl)cyclopropyl)benzamide]
65.5	Cc1c(C(=O)N2CCCc3cc(C4(C(=O)Nc5ccc(F)cc5)CCC4)ccc32)cnn1C [Example 111, 1-[1-(1,5-dimethyl-1H-pyrazole-4-carbonyl)-1,2,3,4-tetrahydroquinolin-6-yl]-N-(4-fluorophenyl)cyclobutane-1-carboxamide]
273	COC(C(=O)Nc1ccc(F)cn1)c1ccc2c(c1)CCCN2C(=O)C1CC1 (stereo not shown) [Example 155, 2-(1-(cyclopropanecarbonyl)-1,2,3,4-tetrahydroquinolin-6-yl)-N-(5-fluoropyridin-2-yl)-2-methoxyacetamide]
18.1	CC(NC(=O)c1ccc(F)cc1)c1ccc2c(n1)CCCN2C(=O)c1ccn(C2CC2)n1 (stereo in doubt) [Example 144, N-{(1R)-1-[5-(1-cyclopropyl-1H-pyrazole-3-carbonyl)-5,6,7,8-tetrahydro-1,5-naphthyridin-2-yl]ethyl}-4-fluorobenzamide]
5790	CC(C(=O)Nc1ccc(F)cc1)c1ccc2c(c1)CCCN2C1CCOCC1 (stereo not shown) [Example 230, N-(4-fluorophenyl)-2-[1-(oxan-4-yl)-1,2,3,4-tetrahydroquinolin-6-yl]propanamide]
1540	CC(NC(=O)c1ccc(F)cc1)c1ccc2c(n1)CCCN2C(=O)C1COC1 (stereo not shown) [Example 142, 4-fluoro-N-{1-[5-(oxetane-3-carbonyl)-5,6,7,8-tetrahydro-1,5-naphthyridin-2-yl]ethyl}benzamide]
24	O=C(Nc1ccc(F)cc1)C(c1ccc2c(n1)CCCN2C(=O)C1CC1)C1CC1 (single isomer, unassigned) [Example 261, 2-(5-(cyclopropanecarbonyl)-5,6,7,8-tetrahydro-1,5-naphthyridin-2-yl)-2-cyclopropyl-N-(4-fluorophenyl)acetamide]

SMILES	IC50 [nM]
C[C@H](C(=O)Nc1ccc(F)cc1)c1ccc2c(c1)CCCN2C(=O)CCOC(C)(C)C [Example 70, (2S)-2-[1-(3-tert-butoxypropanoyl)-1,2,3,4-tetrahydroquinolin-6-yl]-N-(4-fluorophenyl)propanamide]	3380

Same assay, conditions: read-out: Hela IC50

IC50 [nM]	SMILES
9.87	CC(NC(=O)c1ccc(F)cc1)c1ccc2c(n1)CCCN2C(=O)OCCC1CC1(F)F (stereo not shown) [Example 319, 2-(2,2-difluorocyclopropyl)ethyl 6-(1-(4-fluorobenzamido)ethyl)-3,4-dihydro-1,5-naphthyridine-1(2H)-carboxylate]
1800	CC(NC(=O)c1ccc(F)cc1)c1ccc2c(n1)CCCN2c1ccn2ncnc2n1 (stereo not shown) [Example 370, N-(1-(5-([1,2,4]triazolo[1,5-a]pyrimidin-5-yl)-5,6,7,8-tetrahydro-1,5-naphthyridin-2-yl)ethyl)-4-fluorobenzamide]
973	COc1cccc(C(=O)NC(C)c2ccc3c(n2)CCCN3C(=O)OC2CC2)c1 (stereo not shown) [Example 336, cyclopropyl 6-(1-(3-methoxybenzamido)ethyl)-3,4-dihydro-1,5-naphthyridine-1(2H)-carboxylate]
2.72	Cc1nccc(N2CCCc3nc(C(C)C(=O)Nc4ccc(F)cc4)ccc32)n1 (stereo not shown) [Example 371, N-(4-fluorophenyl)-2-(5-(2-methylpyrimidin-4-yl)-5,6,7,8-tetrahydro-1,5-naphthyridin-2-yl)propanamide]
77.2	CC(C)Oc1cccc(N2CCCc3nc(C(C)NC(=O)c4ccc(Cl)cc4)ccc32)n1 (stereo not shown) [Example 353, 4-chloro-N-(1-(5-(6-isopropoxypyridin-2-yl)-5,6,7,8-tetrahydro-1,5-naphthyridin-2-yl)ethyl)benzamide]
9.71	Cc1cc(N2CCCc3nc(C(C)NC(=O)c4ccc(Cl)cc4)ccc32)nc(C(F)(F)F)n1 (stereo not shown) [Example 349, 4-chloro-N-(1-(5-(6-methyl-2-(trifluoromethyl)pyrimidin-4-yl)-5,6,7,8-tetrahydro-1,5-naphthyridin-2-yl)ethyl)benzamide]
2200	CC(NC(=O)c1ccc(F)cc1)c1ccc2c(n1)CCCN2C(=O)OCCN(C)C (stereo not shown) [Example 329, 2-(dimethylamino)ethyl 6-(1-(4-fluorobenzamido)ethyl)-3,4-dihydro-1,5-naphthyridine-1(2H)-carboxylate]
